Measured values taken from patent publication US20240158446A1, “CYCLIC COMPOUND HAVING SELECTIVE INHIBITORY ACTION ON KRAS OVER HRAS AND NRAS” (CHUGAI SEIYAKU KABUSHIKI KAISHA, priority 2021, published 2024).

Legend:
[1] = target: GDP-bound HRAS wild-type protein (Homo sapiens, UniProt P01112); test: Binding to HRAS by surface plasmon resonance (SPR), Single Cycle Kinetics; conditions: SPR, GDP-bound HRAS wild-type protein vs GDP-bound KRAS wild-type protein
[2] = target: GDP-bound NRAS wild-type protein (Homo sapiens, UniProt P01111); test: Binding to NRAS by surface plasmon resonance (SPR), Single Cycle Kinetics; conditions: SPR, GDP-bound NRAS wild-type protein vs GDP-bound KRAS wild-type protein
Chain of GDP-bound NRAS wild-type protein (P01111 whole entry): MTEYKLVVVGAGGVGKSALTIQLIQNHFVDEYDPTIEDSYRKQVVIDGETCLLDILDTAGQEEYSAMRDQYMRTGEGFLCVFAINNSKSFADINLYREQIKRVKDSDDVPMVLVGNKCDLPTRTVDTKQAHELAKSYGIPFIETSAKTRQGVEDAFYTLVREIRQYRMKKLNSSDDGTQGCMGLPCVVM

Chain of GDP-bound HRAS wild-type protein (P01112 whole entry): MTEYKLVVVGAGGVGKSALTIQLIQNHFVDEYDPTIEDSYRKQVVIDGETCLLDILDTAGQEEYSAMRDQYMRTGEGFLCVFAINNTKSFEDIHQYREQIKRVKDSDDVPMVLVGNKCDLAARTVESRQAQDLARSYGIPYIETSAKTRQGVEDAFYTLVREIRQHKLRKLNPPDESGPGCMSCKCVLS

Row | SMILES | HRAS/KRAS (ratio of KD value for HRAS to KD value for KRAS) [1] | NRAS/KRAS (ratio of KD value for NRAS to KD value for KRAS) [2]
1 | CCC[C@H]1C(=O)N[C@@H]([C@@H](C)CC)C(=O)N(CCC)CC(=O)N(C)[C@H]2C/C=C\CCN(C2=O)[C@@H](Cc2ccc(C)cc2)C(=O)N(C)CC(=O)N[C@@H](CCc2ccc(C(F)(F)F)c(OC)c2)C(=O)N2C[C@H](OCC)C[C@H]2C(=O)NC2(CC(C)(C)C2)C(=O)N(C)[C@@H](C2CCCC2)C(=O)N(C)[C@H](C(=O)N(C)C)CC(=O)N1C [PP2054] | A (a compound having 10 or more and less than 20 is denoted as A) | A (a compound having 10 or more and less than 20 is denoted as A)
2 | C#CC[C@H]1C(=O)N[C@@H]([C@@H](C)CC)C(=O)N(C)CC(=O)N(C)[C@H]2C/C=C\CCN(C2=O)[C@@H](Cc2ccc(C(F)(F)F)cc2)C(=O)N(C)CC(=O)N[C@@H](CCc2ccc(C(F)(F)F)c(OC)c2)C(=O)N2C[C@@H](C)C[C@H]2C(=O)NC2(CC(C)(C)C2)C(=O)N(C)[C@@H](C2CCCC2)C(=O)N(C)[C@H](C(=O)N(C)CCC)CC(=O)N1C [PP2057] | A (a compound having 10 or more and less than 20 is denoted as A) | A (a compound having 10 or more and less than 20 is denoted as A)
3 | C=CCN1CC(=O)N(C)[C@H]2C/C=C\CCN(C2=O)[C@@H](Cc2ccc(C)cc2)C(=O)N(C)CC(=O)N[C@@H](CCc2ccc(C(F)(F)F)c(OC)c2)C(=O)N2C[C@H](OCC)C[C@H]2C(=O)NC2(CC(C)(C)C2)C(=O)N(C)[C@@H](C2CCCC2)C(=O)N(C)[C@H](C(=O)N(C)C)CC(=O)N(C)[C@@H](CC(C)C)C(=O)N[C@@H]([C@@H](C)CC)C1=O [PP2058] | A (a compound having 10 or more and less than 20 is denoted as A) | A (a compound having 10 or more and less than 20 is denoted as A)
4 | C#CC[C@H]1C(=O)N[C@@H]([C@@H](C)CC)C(=O)N(C)CC(=O)N(C)[C@H]2C/C=C\CCN(C2=O)[C@@H](Cc2ccc(C(F)(F)F)cc2)C(=O)N(C)CC(=O)N[C@@H](CCc2ccc(C(F)(F)F)c(OC)c2)C(=O)N2C[C@@H](C)C[C@H]2C(=O)NC2(CCC2)C(=O)N(C)[C@@H](C2CCCC2)C(=O)N(C)[C@H](C(=O)N(C)CCC)CC(=O)N1C [PP2063] | A (a compound having 10 or more and less than 20 is denoted as A) | AA (a compound having 20 or more is denoted as AA)
5 | CC[C@H](C)[C@@H]1NC(=O)[C@H](C2CCC2)N(C)C(=O)C[C@@H](C(=O)N(C)CC)N(C)C(=O)[C@H](C2CCCC2)N(C)C(=O)C2(CCC2)NC(=O)[C@@H]2C[C@H](C)CN2C(=O)[C@H](CCc2cc(F)c(C(F)(F)F)c(F)c2)NC(=O)CN(C)C(=O)[C@H](Cc2ccc(C(F)(F)F)cc2)N2CC/C=C\C[C@@H](C2=O)N(C)C(=O)CN(C)C1=O [PP2082] | A (a compound having 10 or more and less than 20 is denoted as A) | AA (a compound having 20 or more is denoted as AA)
6 | CCC[C@H]1C(=O)N[C@@H]([C@@H](C)CC)C(=O)N(C2CC2)CC(=O)N(C)[C@H]2C/C=C\CCN(C2=O)[C@@H](Cc2ccc(C)cc2)C(=O)N(C)CC(=O)N[C@@H](CCc2ccc(C(F)(F)F)c(OC)c2)C(=O)N2C[C@H](OCC)C[C@H]2C(=O)NC2(CC(C)(C)C2)C(=O)N(C)[C@@H](C2CCCC2)C(=O)N(C)[C@H](C(=O)N(C)C)CC(=O)N1C [PP2097] | A (a compound having 10 or more and less than 20 is denoted as A) | A (a compound having 10 or more and less than 20 is denoted as A)
7 | C#CCN1CC(=O)N(C)[C@H]2C/C=C\CCN(C2=O)[C@@H](Cc2ccc(C)cc2)C(=O)N(C)CC(=O)N[C@@H](CCc2ccc(C(F)(F)F)c(OC)c2)C(=O)N2C[C@H](OCC)C[C@H]2C(=O)NC2(CC(C)(C)C2)C(=O)N(C)[C@@H](C2CCCC2)C(=O)N(C)[C@H](C(=O)N(C)C)CC(=O)N(C)[C@@H](CCC)C(=O)N[C@@H]([C@@H](C)CC)C1=O [PP2099] | A (a compound having 10 or more and less than 20 is denoted as A) | A (a compound having 10 or more and less than 20 is denoted as A)
8 | CCC[C@H]1C(=O)N[C@@H]([C@@H](C)CC)C(=O)N(CCC)CC(=O)N(C)[C@H]2C/C=C\CCN(C2=O)[C@@H](Cc2ccc(C)cc2)C(=O)N(C)CC(=O)N[C@@H](CCc2cc(F)c(C(F)(F)F)c(F)c2)C(=O)N2C[C@H](OCC)C[C@H]2C(=O)NC2(CC(C)(C)C2)C(=O)N(C)[C@@H](C2CCCC2)C(=O)N(C)[C@H](C(=O)N(C)C)CC(=O)N1C [PP2108] | A (a compound having 10 or more and less than 20 is denoted as A) | A (a compound having 10 or more and less than 20 is denoted as A)
9 | CCO[C@@H]1C[C@H]2C(=O)NC3(CC(C)(C)C3)C(=O)N(C)[C@@H](C(CC)CC)C(=O)N(C)[C@H](C(=O)N3CCCC3)CC(=O)N(C)[C@@H](COC)C(=O)N[C@@H]([C@@H](C)CC)C(=O)N(C)CC(=O)N(C)[C@H]3C/C=C\CCN(C3=O)[C@@H](Cc3ccc(C)cc3)C(=O)N(C)CC(=O)N[C@@H](CCc3cc(F)c(C(F)(F)F)c(F)c3)C(=O)N2C1 [PP2139] | A (a compound having 10 or more and less than 20 is denoted as A) | AA (a compound having 20 or more is denoted as AA)
10 | CCO[C@@H]1C[C@H]2C(=O)NC3(CC(C)(C)C3)C(=O)N(C)[C@@H](C(CC)CC)C(=O)N(C)[C@H](C(=O)N(C)C)CC(=O)N(C)[C@@H](CC(C)C)C(=O)N[C@@H]([C@@H](C)CC)C(=O)N(C)CC(=O)N(C)[C@H]3C/C=C\CCN(C3=O)[C@@H](Cc3ccc(C)cc3)C(=O)N(C)CC(=O)N[C@@H](CCc3cc(F)c(C(F)(F)F)c(F)c3)C(=O)N2C1 [PP2141] | A (a compound having 10 or more and less than 20 is denoted as A) | A (a compound having 10 or more and less than 20 is denoted as A)
11 | CCO[C@@H]1C[C@H]2C(=O)NC3(CC(C)(C)C3)C(=O)N(C)[C@@H](C(CC)CC)C(=O)N(C)[C@H](C(=O)N(C)C)CC(=O)N(C)[C@@H](CC3CC3)C(=O)N[C@@H]([C@@H](C)CC)C(=O)N(C)CC(=O)N(C)[C@H]3C/C=C\CCN(C3=O)[C@@H](Cc3ccc(C)cc3)C(=O)N(C)CC(=O)N[C@@H](CCc3ccc(C(F)(F)F)c(Cl)c3)C(=O)N2C1 [PP2142] | A (a compound having 10 or more and less than 20 is denoted as A) | AA (a compound having 20 or more is denoted as AA)
12 | CCO[C@@H]1C[C@H]2C(=O)NC3(CC(C)(C)C3)C(=O)N(C)[C@@H](C(CC)CC)C(=O)N(C)[C@H](C(=O)N(C)C)CC(=O)N(C)[C@@H](CC(C)C)C(=O)N[C@@H]([C@@H](C)CC)C(=O)N(C)CC(=O)N(C)[C@H]3C/C=C\CCN(C3=O)[C@@H](Cc3ccc(C)cc3)C(=O)N(C)CC(=O)N[C@@H](CCc3ccc(C(F)(F)F)c(Cl)c3)C(=O)N2C1 [PP2148] | A (a compound having 10 or more and less than 20 is denoted as A) | A (a compound having 10 or more and less than 20 is denoted as A)
13 | CCO[C@@H]1C[C@H]2C(=O)NC3(CC(C)(C)C3)C(=O)N(C)[C@@H](C(CC)CC)C(=O)N(C)[C@H](C(=O)N(C)C)CC(=O)N(C)[C@@H](C(C)C)C(=O)N[C@@H]([C@@H](C)CC)C(=O)N(C)CC(=O)N(C)[C@H]3C/C=C\CCN(C3=O)[C@@H](Cc3ccc(C)cc3)C(=O)N(C)CC(=O)N[C@@H](CCc3cc(F)c(C(F)(F)F)c(F)c3)C(=O)N2C1 [PP2153] | A (a compound having 10 or more and less than 20 is denoted as A) | A (a compound having 10 or more and less than 20 is denoted as A)
14 | CCO[C@@H]1C[C@H]2C(=O)NC3(CC(C)(C)C3)C(=O)N(C)[C@@H](C(CC)CC)C(=O)N(C)[C@H](C(=O)N(C)C)CC(=O)N(C)[C@@H](C(C)C)C(=O)N[C@@H]([C@@H](C)CC)C(=O)N(C)CC(=O)N(C)[C@H]3C/C=C\CCN(C3=O)[C@@H](Cc3ccc(C)cc3)C(=O)N(C)CC(=O)N[C@@H](CCc3ccc(C(F)(F)F)c(Cl)c3)C(=O)N2C1 [PP2158] | A (a compound having 10 or more and less than 20 is denoted as A) | AA (a compound having 20 or more is denoted as AA)
15 | CCC[C@H]1C(=O)N[C@@H]([C@@H](C)CC)C(=O)N(C)CC(=O)N(C)[C@H]2C/C=C\CCN(C2=O)[C@@H](Cc2ccc(C(F)(F)F)cc2)C(=O)N(C)CC(=O)N[C@@H](CCc2ccc(Cl)c(Cl)c2)C(=O)N2C[C@H](OCC)C[C@H]2C(=O)NC2(CC(C)(C)C2)C(=O)N(C)[C@@H](C(CC)CC)C(=O)N(C)[C@H](C(=O)N(C)C)CC(=O)N1C [PP2175] | A (a compound having 10 or more and less than 20 is denoted as A) | AA (a compound having 20 or more is denoted as AA)
16 | CCO[C@@H]1C[C@H]2C(=O)NC3(CC(C)(C)C3)C(=O)N(C)[C@@H](C(CC)CC)C(=O)N(C)[C@H](C(=O)N(C)C)CC(=O)N(C)[C@@H](CC)C(=O)N[C@@H]([C@@H](C)CC)C(=O)N(C)CC(=O)N(C)[C@H]3C/C=C\CCN(C3=O)[C@@H](Cc3ccc(C(F)(F)F)cc3)C(=O)N(C)CC(=O)N[C@@H](CCc3ccc(Cl)c(Cl)c3)C(=O)N2C1 [PP2179] | A (a compound having 10 or more and less than 20 is denoted as A) | AA (a compound having 20 or more is denoted as AA)
17 | CCO[C@@H]1C[C@H]2C(=O)NC3(CC(C)(C)C3)C(=O)N(C)[C@@H](C(CC)CC)C(=O)N(C)[C@H](C(=O)N(C)C)CC(=O)N(C)[C@@H](CC3CC3)C(=O)N[C@@H]([C@@H](C)CC)C(=O)N(C)CC(=O)N(C)[C@H]3C/C=C\CCN(C3=O)[C@@H](Cc3ccc(C)cc3)C(=O)N(C)CC(=O)N[C@@H](CCc3ccc(Cl)c(Cl)c3)C(=O)N2C1 [PP2182] | A (a compound having 10 or more and less than 20 is denoted as A) | AA (a compound having 20 or more is denoted as AA)
